According to patent publication US20250179429A1, “CELL CULTURE MEDIUM” (Auckland UniServices Limited, priority 2017, published 2025):
“Also recorded” adds a separate entry of the source. Where a name gives a salt, the structure may show the parent alone. Read-outs that look alike come from different tables or passages of the source.

Columns and labels:
[1] = system: Human primary keratinocytes; test: Keratinocyte growth in culture media: rhodamine B staining, confluency measured with Operetta plate reader; assay type: cell-based; settings: for effect of ROCK inhibitor on keratinocyte growth, FIG. 3: Y27632 10 μm vs SB772077B 400 nM in Base, Kelch's or Green's medium, 3 donors; for effect of Y27632 on keratinocyte growth, FIG. 5: 8 days
epidermal cells = test: Greens, Cellntech, S7, EDGS medium comparison (rhodamine B, confluency score 0 to 4); assay type: cell-based; settings: added to Green's medium with MEFs and commercial keratinocyte growth media
Description: Epidermal cells were grown in Greens medium with MEFs, CnT Prime, Epilife medium supplemented with S7 or EDGS. All media were tested with and without ROCK inhibitor Y27632. 550,000 epidermal cells were grown in each medium until one sample reached 80% confluence, at this point all samples were fixed and stained for rhodamine B. Sample confluency was then assigned a score between 0 and 4, 0 having no cells, and 4 having maximum confluency. N=2.
Flasks were pre-coated with a coating matrix for S7 and EDGS supplemented Epilife medium samples. 1.7 ml of dilution buffer was added to each T25 flask. Then 17 μl of coating matrix was added. The mixture was incubated at room temperature for 30 minutes. Next, the dilution buffer and coating matrix mix were removed from the flasks before adding cells and media.
550,000 epidermal cells and 5 ml of each required medium was added, with or without 10 μl Y27632, to a T25 flask. The flask was incubated at 37° C. with 5% CO2 until one sample reached 80% confluency.
Next, the medium was removed from the flasks and the cells fixed with 4% formaldehyde for 30 minutes. 1% rhodamine B solution was added and the cells incubated at room temperature for 10 minutes. The rhodamine B solution was removed and the cells thoroughly rinsed with water. Finally, all liquid from the flasks was removed using a pipette. The cells were imaged and confluency was calculated.

[2] = Green's media + Y27632, MEFs not present

Compound: Nc1ncnc2nc[nH]c12 [adenine]
- effect on keratinocyte growth of leaving one component out of Green's media, FIG. 1 [1, 2]: appears to enhance growth of keratinocytes

Compound: choleratoxin
- effect on keratinocyte growth of leaving one component out of Green's media, FIG. 1 [1]: important components of Green's medium in generating keratinocyte proliferation; also recorded: negatively affect keratinocyte growth; also recorded: one of the most important single ingredients of Green's media

Compound: C[C@@H](N)[C@H]1CC[C@H](C(=O)Nc2ccncc2)CC1 [Y27632, reference compound]
- effect of Y27632 on keratinocyte growth, FIG. 6 (epidermal cells): may also enhance growth of keratinocytes in other keratinocyte growth media; also recorded: enhanced keratinocyte growth in Green's medium, S7 medium and CnT Prime medium
- effect of ROCK inhibitor on keratinocyte growth, FIG. 3 [1]: comparable effects on keratinocyte growth
- ROCK inhibitor concentration to achieve the same effect (enhancing keratinocyte growth rates) ([1]; Y27632 vs SB 772077B): 10 μm
- effect of Y27632 on keratinocyte growth, FIG. 5 ([1]; added to Green's medium with MEFs): can enhance growth of keratinocytes
- effect of Y27632 on keratinocyte growth, FIG. 5 ([1]; added to serum-free Optipeak media): enhanced growth of keratinocytes; also recorded: a few colonies started to develop

Compound: EGF: epidermal growth factor, component of Green's medium at 10 ng/ml (NSDSECPLSHDGYCLHDGVCMYIEALDKYACNCVVGYIGERCQYRDLKWWELR; Epidermal growth factor; UniProt P01133 971-1023, looked up)
- effect on keratinocyte growth of leaving one component out of Green's media, FIG. 1 [1, 2]: important components of Green's medium in generating keratinocyte proliferation; also recorded: negatively affect keratinocyte growth
- effect of EGF on keratinocyte growth (later finding) ([1]; data not shown): not enhancing keratinocyte growth

Compound: CCn1c(-c2nonc2N)nc2cncc(C(=O)N3CC[C@H](N)C3)c21 [SB772077B, (3S)-1-[[2-(4-Amino-1,2,5-oxadiazol-3-yl)-1-ethyl-1H-imidazo[4,5-c]pyridin-7-yl]carbonyl]-3-pyrrolidinamine dihydrochloride, reference compound]
- ROCK inhibitor concentration to achieve the same effect (enhancing keratinocyte growth rates) ([1]; SB 772077B vs Y27632): ~400 nm
- effect of ROCK inhibitor on keratinocyte growth, FIG. 3 ([1]; dihydrochloride): comparable effects on keratinocyte growth; also recorded: can be used as substitute for Y27632 for keratinocyte growth
